# Entries after “also recorded” stand apart in the source; their conditions may differ.
# What was measured:
# NOX = NOX mRNA expression in mouse kidney (IRI model); type: in vivo; details: C57BL/6 mice, renal IRI, 60 mg/kg intraperitoneal; FIG. 2a, 2b
# Method: (§1) C57BL/6 mice were intraperitoneally injected with 60 mg/kg of ML171, a selective NOX inhibitor or excipient at a time, renal ischemia-reperfusion injury (IRI) was induced by clamping bilateral renal vessels for 30 min. MDCK cells were incubated with H2O2 (1.4 mM) for 1 h to induce oxidative stress and treated with ML171 (1 and 2.5 μM). Renal damage was estimated using renal function tests and histology. NOX expression, oxidative stress markers, apoptosis assays and MAPK pathways were also evaluated in renal tissue and MDCK cells.
# ERK [1] = experiment: MAPK pathway (ERK phosphorylation) in H2O2-treated MDCK cells; type: cell-based; details: H2O2 1.4 mM 1 h, ML171 1 and 2.5 μM, FIG. 8a, 8b
# Method: as §1
# [2] = system: reactive oxygen species (ROS); experiment: Reactive oxygen species measurement in the kidney (IRI model); type: in vivo; details: C57BL/6 mice, renal IRI, 60 mg/kg intraperitoneal; FIG. 2d, 2e
# Method: as §1
# MDCK cells [3] = experiment: Apoptosis assays in H2O2-treated MDCK cells (Caspase-3 activity, BCL-2/BAX, TUNEL); type: cell-based; details: H2O2 1.4 mM 1 h, ML171 1 and 2.5 μM
# Method: as §1
# [4] = system: renal ischemia-reperfusion injury (IRI); experiment: Renal ischemia-reperfusion injury mouse model: renal function tests and histology; type: in vivo, C57BL/6 mice; details: for tissue damage due to ischemia-reperfusion (IRI-mediated damage): mouse model of renal ischemia reperfusion, overall statement
# Method: as §1
# MDCK cells [5] = experiment: NOX-related gene and oxidative stress marker expression in H2O2-treated MDCK cells; type: cell-based; details: H2O2 1.4 mM 1 h, ML171 1 and 2.5 μM
# Method: as §1
# apoptosis = experiment: Apoptosis assays in the kidney (Caspase-3 activity, TUNEL, BCL-2/BAX; IRI model); type: in vivo; details: C57BL/6 mice, renal IRI, 60 mg/kg intraperitoneal
# Method: as §1
# MDCK cells [6] = experiment: ROS production in H2O2-treated MDCK cells; type: cell-based; details: H2O2 1.4 mM 1 h, ML171 1 and 2.5 μM, FIG. 6f
# Method: as §1
# ERK [7] = experiment: MAPK pathway western blot in kidney tissue (IRI model); type: in vivo; details: C57BL/6 mice, renal IRI, 60 mg/kg intraperitoneal, FIG. 5a, 5b
# Method: as §1
compound,measurement,setting,value
CC(=O)c1ccc2c(c1)Nc1ccccc1S2 [ML171],NOX mRNA expression level in mouse kidney,NOX,significantly reduced
same,ERK phosphorylation in MDCK cells,ERK [1],significantly reduced and regulated this; also recorded: affect ERK signaling
same,reactive oxygen species (ROS) in the kidney,[2],effectively blocked ROS
same,Caspase-3 activity,MDCK cells [3]; FIG. 7a,a decrease in Caspase-3 activity
same,protein expression levels of apoptosis markers BCL-2 and BAX,MDCK cells [3]; FIG. 7b,apoptosis was significantly inhibited; also recorded: significant increase in Bcl-2 levels
same,"apoptosis pattern, intracellular TUNEL assay staining",MDCK cells [3]; FIG. 7c,effectively blocked it
same,level of kidney damage in the blood (renal function test),"[4]; C57BL/6 mice, renal IRI (bilateral clamping 30 min), 60 mg/kg intraperitoneal, FIG. 1a, 1b",a significant decrease
same,"damage to renal tubular epithelial cells, PAS staining","[4]; C57BL/6 mice, renal IRI, 60 mg/kg intraperitoneal, FIG. 1c",reduced damage to renal tubular epithelial cells
same,"renal fibrosis, Trichrome stain","[4]; C57BL/6 mice, renal IRI, 60 mg/kg intraperitoneal, FIG. 4a, 4b",fibrosis was significantly reduced
same,tissue damage due to ischemia-reperfusion (IRI-mediated damage),[4],significantly attenuated IRI-mediated damage
same,tissue damage due to ischemia-reperfusion (IRI-mediated damage),[4]; listed as compound of Formula 1,exhibits an effect of alleviating tissue damage due to ischemia-reperfusion
same,"changes in oxidative stress-related enzymes, SOD and GXP production",MDCK cells [5],alleviated by ML171 treatment
same,"expression of NOX-related genes / oxidative stress markers (NOX1, NOX2, p40)",MDCK cells [5]; FIG. 6a-6e,"effectively decreased; also recorded: reduced the expression of NOX1, NOX2 and p40"
same,Caspase-3 activity in the kidney,"apoptosis; FIG. 3a, 60 mg/kg",significant apoptosis alleviation effect; also recorded: reversed a decrease in Bcl-2 and an increase in Caspase-3 activity
same,"apoptosis, TUNEL assay histological staining of kidney",apoptosis; FIG. 3b,alleviated apoptosis
same,protein expression levels of apoptosis markers BCL-2 and BAX in the kidneys,"apoptosis; FIG. 3c, 60 mg/kg",effectively inhibited apoptosis; also recorded: reversed a decrease in Bcl-2
same,ROS production in cells,MDCK cells [6],significantly reduced ROS
same,phosphorylation of ERK in kidney tissue (western blot),ERK [7],effectively reduced it; also recorded: affect ERK signaling
